This passage reports TGI and GI50 results from PubChem BioAssay (NCI).

Where “and” joins values, the source holds several entries; their conditions need not be identical. Equal entries are not always repeated.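 Five concentrations, 48 hours, 96-well plates. The concentration for 50% growth inhibition is given as GI50. TGI denotes the concentration required for complete inhibition of growth.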 Bounds are passed on as bounds.

Common to all, as to experiment: NCI tumour cell line growth inhibition, 48 h
Test [1] deals with DMS 273 small cell lung.
Test [2] relates to KM20L2 colon.
Test [3] concerns LXFL 529 NSCLC.
Test [4] relates to DMS 114 small cell lung.
The subject of test [5] is DLD-1 colon.
Test [6] concerns SNB-78 CNS.
Test [7] deals with HL-60(TB) leukemia.
The test system of test [8] is ACHN renal.
Test [9] relates to MCF7 breast.
In test [10] the test system is DU-145 prostate.
The subject of test [11] is T-47D breast.
In test [12] the test system is MDA-MB-435.
For test [13], the system named is PC-3 prostate.

For the molecule `CC(=O)c1ccc(OCC(O)CO)cc1` (configuration not stated), the TGI in test [1], in test [2], in test [3], in [4], in test [5] and in test [6] was > 100 µM each time. For the same molecule, the TGI in [7] and in test [8] was > 100 µM throughout.
For `CC(=O)NC1=C(NCCN(C)C)C(=O)c2ccccc2C1=O`, the TGI is 27.6 µM in [1]; > 50 µM in test [2]; > 50 µM in test [3]; > 50 µM in test [5]; > 50 µM in [6]; 22.5 µM in test [7]. The TGI in test [8] was > 50 µM.
For the molecule `COc1c(C(=O)c2ccc([N+](=O)[O-])cc2)cc(C(C)(C)C)cc1C(C)(C)C`, the TGI in test [1] was > 100 µM; in test [2] it was > 100 µM; in [3], > 100 µM; in test [4], 73.1 µM; in [5] it was > 100 µM; in test [6] it was > 100 µM. Besides, the TGI is 47.2 µM in test [7] and > 100 µM in test [8].
With `COC(=O)C(Cc1cc(OC)c(OC)c(OC)c1)c1ccc(OC)cc1` (configuration not stated), the TGI in test [1], in test [2], in test [3], in test [4], in [5] and in test [6] was > 100 µM throughout. Also, the TGI in [7] and in test [8] was > 100 µM each time.
`Cc1ccc(NC(=O)C(=O)C(C#N)c2nc(-c3ccc(-c4ccccc4)cc3)cs2)c(C)c1` (configuration not stated): the TGI in test [1], in [2], in test [3], in [4], in [5] and in test [6] was > 100 µM each time. In test [8], the TGI was > 100 µM.
Turning to `NNC(=O)CNC(=O)c1ccc(Cl)cc1Cl`, the TGI in test [1], in test [2], in test [3], in test [4], in [5] and in test [7] was > 100 µM throughout. In addition, in test [8], the TGI was > 100 µM.
With `Nc1nc2c(s1)CCc1c-2c(Br)n(Cc2ccccc2)c1Br`, the GI50 is 11.9 µM in test [9]; 16.1 µM in test [10]; 3.17 µM in [11]; 8.57 µM in test [12]; 12.8 µM in test [13]; 5.64 µM in [7]. Further, the GI50 in [8] is 2.22 µM. Besides, the TGI is 28.6 µM in test [9]; 37.3 µM in test [10]; 10.6 µM in [11]; 30.7 µM in test [12]; 45.5 µM in [13]; 37.1 µM in [7]. The TGI in [8] is 5.23 µM.
For `COC(=O)/C(=N\Nc1nc(=S)[nH]n1N)C(C#N)c1ccccc1` (configuration not stated), the TGI in test [2], in test [3], in test [5], in [6], in test [7] and in [8] was > 100 µM each time.
Regarding `CC(C)(C)C(=O)OCOP(=O)(OCOC(=O)C(C)(C)C)C1CC(O)N(O)C1=O` (configuration not stated), the GI50 was 3.32 µM in test [9]; 6.7 µM in test [10]; 5.9 µM in test [11]; 8.15 µM in [12]; 8.81 µM in test [13]; 3.44 µM in test [7]. The GI50 in [8] is 6.04 µM. The TGI in test [9] was > 100 µM; in [10] it was > 100 µM; in test [11] it was 89.7 µM; in [12], > 100 µM; in test [13] it was > 100 µM; in test [7], 22.1 µM. In addition, the TGI in [8] was > 100 µM.
For the molecule `O=C(c1ccccc1)N1C2CCC1C(C(F)(F)F)=C2C(F)(F)F`, the TGI in test [1], in test [2], in test [3], in test [4], in test [5] and in test [6] was > 100 µM throughout. In addition, the TGI in test [7] was > 100 µM.
As for `COc1ccc2cc(-c3cc4c(oc3=O)-c3ccccc3OC4O)c(=O)oc2c1` (configuration not stated), the GI50 was 17.1 µM in [9]; 14.3 µM in test [10]; 13 µM in [11]; 16.4 µM in [12]; 14.7 µM in [13]; > 100 µM in [7]. Moreover, the GI50 in test [8] was 16.1 µM. The TGI in test [9] is 34.1 µM; in test [10], 27.4 µM; in test [11], 33.6 µM; in test [12], 36 µM; in test [13] it was 28.3 µM; in test [7], > 100 µM. The molecule further registered a TGI in test [8] of 30.1 µM.
`C=CC(=O)NCc1cccc(Nc2ncc(Br)c(NCCCNC(=O)C3CCC3)n2)c1`: the GI50 in test [9] is 1.88 µM and 0.537 µM; in test [10], 1.25 µM and 1.36 µM; in test [11], 4.86 µM and 5.07 µM; in test [12], 2.33 µM and 2.14 µM; in test [13], 1.55 µM and 0.933 µM; in test [7], 0.821 µM and 0.893 µM. Further, the GI50 in [8] was 1.66 µM and 0.712 µM. The TGI in test [9] was 12.5 µM and 4.77 µM; in test [10] it was 12.5 µM and 19.4 µM; in test [11] it was 12.5 µM and 22.5 µM; in test [12] it was 8.47 µM and 5.75 µM; in test [13], 12.5 µM and 7.04 µM; in [7] it was 5.96 µM and > 25 µM. In test [8], the TGI was 12.5 µM and > 25 µM.
For `Cc1cccc2c1N(C(=O)/C=C\C(=O)O)C(c1c(C)[nH]c3ccccc13)C2` (configuration not stated), the TGI in [2] is > 100 µM; in test [3] it was 28.6 µM; in test [4] it was 42.2 µM; in test [5], > 100 µM; in [6] it was > 100 µM; in test [7], 51.3 µM. Moreover, the TGI in test [8] was > 100 µM.
Take `CCOC(=O)C1C2CCC(C2)C1(CCl)C(=O)OCC` (configuration not stated): the TGI in test [1], in [2], in [3], in [4], in test [7] and in test [8] was > 100 µM throughout.
